Experimental data as given in patent US4439448A, “Glutamine derivatives” (Mitsubishi Chemical Industries Ltd., priority 1980, dated 1984).
Where a name gives a salt, the structure may show the parent alone.

Tests used:
[1] = tested on: plaque forming cells in the spleen of mice; test: TEST 2 effect on plaque forming cells in the spleen of mice inoculated with sheep red blood cells, Balb/c (Run 1); assay type: in vivo, mouse; details: 4 weeks, intravascular sheep cells, four consecutive days
Method: (§1) Mice were inoculated by intravascular or intraperitoneal administration of 1×10^8 sheep cells per animal. Each group consisted of five mice. The test drug was administered orally or intraperitoneally for four consecutive days from the day when the sheep cells were administered.

[2] = tested on: plaque forming cells in the spleen of mice; test: TEST 2 effect on plaque forming cells in the spleen of mice inoculated with sheep red blood cells, C3H/He (Run 2); assay type: in vivo, mouse; details: 7 weeks, I.P. sheep cells, four consecutive days
Method: as §1

delayed hypersensitibity = test: TEST 3 effects on delayed hypersensitivity (sheep red blood cell paw edema); assay type: in vivo, mice, ddY strain; details: four consecutive days
Method: Into the palms of the right rear limbs of mice (ddY strain, weighing 25-30 g) was injected 40 μl of sheep red blood cells the concentration of which was adjusted to 1×10^7 /40 μl. The test drug was administered intraperitoneally or orally for four consecutive days inclusive of the day of sheep red blood cell administration. Three days after the day of sheep red blood cell administration, 40 μl of sheep red blood cells which were adjusted to have a concentration of 5×10^8 /40 μl were administered into the palms of the left rear limbs. After 24 hours, the thickness of the palms of the right and left rear limbs was measured. The edema was expressed as the difference in thickness between the palms of the left and right rear limbs. The results are shown in FIG. 3, in which the edema in the medicated group is expressed as percent control which means the percentage of the edema found in the group in which physiological saline is applied (control group).

ddY mice = test: TEST 1 acute toxicity in mice; assay type: in vivo
Description: The test drug was suspended in aqueous 50% solution of Tween 80 and administered to ddY mice weighing 20-25 g orally or intraperitoneally in doses indicated in Table 1 below.

[3] = tested on: six strains as stipulated in the Labor Safety and Hygiene Law in Japan; test: mutagenicity test using six strains; assay type: cell-based; details: ~100 μg/plate
rat adjuvant arthritis = test: TEST 4 effect on rat adjuvant arthritis; assay type: in vivo, Sprague-Dawley rats; details: 27 consecutive days
Method: The test animals were Sprague-Dawley rats at the age of 8 weeks and each group consisted of ten animals. An intracutaneous injection of 0.05 ml of a suspension of 0.5 mg of Mycobacterium butyricum in liquid paraffin was applied to each animal at the paw of the right rear limb. For 27 consecutive days from the day before the adjuvant injection, Compound (2) was orally administered at doses of 3, 10 and 30 mg/kg with measurement of the volume of the paw.

[4] = 1,000 mg/kg IP, during 7 days after administration
[5] = 5,000 mg/kg PO, during 7 days after administration

| Molecule | % Control (edema, percentage of that in physiological saline control group) (delayed hypersensitibity; 30 mg/kg I.P.) | % Control (edema, percentage of that in physiological saline control group) (delayed hypersensitibity; 100 mg/kg P.O.) | % Control (edema, percentage of that in physiological saline control group) (delayed hypersensitibity; 3 mg/kg I.P.) | % Control (edema, percentage of that in physiological saline control group) (delayed hypersensitibity; 10 mg/kg I.P.) | % Control (edema, percentage of that in physiological saline control group) (delayed hypersensitibity; 30 mg/kg P.O.) | % Control (edema, percentage of that in physiological saline control group) (delayed hypersensitibity; 300 mg/kg P.O.) | further results |
| --- | --- | --- | --- | --- | --- | --- | --- |
| Cn1cnc([N+](=O)[O-])c1Sc1ncnc2nc[nH]c12 [Azathioprine, reference compound] | 61.0% | 58.2% | – | – | – | – | PFC × 2,500/spleen (Mean ± standard error) ([1]; 50 mg/kg P.O.): 22.8 ± 2.40 PFC × 2,500/spleen; PFC × 2,500/spleen (Mean ± standard error) ([2]; 50 mg/kg P.O.): 46.7 ± 1.2 PFC × 2,500/spleen |
| CCOC(=O)Cc1ccc(NC(=O)CC[C@@H](N)C(=O)O)cc1 [Compound (12), N-(4-Ethoxycarbonylmethylphenyl)-D-glutamine] | 89.1% | 81.7% | 76.1% | 107.9% | 85.4% | 80.7% | – |
| CCOC(=O)C(CC)c1ccc(NC(=O)CC[C@H](N)C(=O)O)cc1 (stereo partly drawn) [Compound (13), N-[4-(1-Ethoxycarbonyl-n-propyl)phenyl]-L-glutamine] | 64.2% | 87.4% | 82.1% | 70.5% | 89.6% | 75.7% | No. of dead mice/No. of test animals (ddY mice; mouse, in vivo): 0/5 |
| CCOC(=O)C(C)(C)c1ccc(NC(=O)CC[C@H](N)C(=O)O)cc1 [Compound (14), N-[4-(1-Ethoxycarbonyl-1-methylethyl)phenyl]-L-glutamine] | 71.9% | – | 77.3% | 72.6% | – | – | – |
| CCOC(=O)C(C)c1ccc(NC(=O)CC[C@H](N)C(=O)O)cc1 (stereo partly drawn) [Compound (15), N-[4-(1-Ethoxycarbonylethyl)phenyl]-L-glutamine] | 67.6% | – | 78.0% | 62.6% | – | – | – |
| CCOC(=O)Cc1ccc(NC(=O)CC[C@H](N)C(=O)O)cc1 [Hydrochloride Compound (2)] | 90.0% | 75.7% | 79.6% | 90.7% | 81.8% | 67.2% | – |
| N-(2-Ethoxycarbonylmethylphenyl)-L-glutamine [Compound (7)] | 86.8% | 84.8% | 92.4% | 91.1% | 92.8% | 82.3% | – |
| N-(3-Ethoxycarbonylmethylphenyl)-L-glutamine [Compound (6)] | 84.3% | 82.8% | 94.6% | 83.2% | 81.1% | 83.1% | – |
| N-(4-Carboxymethylphenyl)-L-glutamine [Compound (2)] | 62.3% | 66.2% | 69.7% | 65.9% | 78.8% | 65.0% | mutagenicity [3]: negative in mutagenicity; No. of dead mice/No. of test animals (ddY mice; [4]): 0/5; No. of dead mice/No. of test animals (ddY mice; [5]): 0/5; PFC × 2,500/spleen (Mean ± standard error) ([1]; 30 mg/kg P.O.): 99.0 ± 4.60 PFC × 2,500/spleen; PFC × 2,500/spleen (Mean ± standard error) ([1]; 100 mg/kg P.O.): 91.8 ± 18.6 PFC × 2,500/spleen; PFC × 2,500/spleen (Mean ± standard error) ([1]; 300 mg/kg P.O.): 73.4 ± 12.7 PFC × 2,500/spleen; PFC × 2,500/spleen (Mean ± standard error) ([2]; 30 mg/kg P.O.): 113.0 ± 20.4 PFC × 2,500/spleen; PFC × 2,500/spleen (Mean ± standard error) ([2]; 100 mg/kg P.O.): 160.0 ± 20.6 PFC × 2,500/spleen; PFC × 2,500/spleen (Mean ± standard error) ([2]; 300 mg/kg P.O.): 152.4 ± 11.4 PFC × 2,500/spleen; action on secondary inflammations (rat adjuvant arthritis; 3, 10 and 30 mg/kg orally): exerted an inhibitory action on these secondary inflammations in every dose; dose dependency of action on secondary inflammations (rat adjuvant arthritis; 3, 10 and 30 mg/kg orally): any definite dose dependency was not appreciated; decrease in body weight accompanying secondary inflammations (rat adjuvant arthritis; orally): an improving tendency; inhibitory action on primary inflammations caused by direct reaction of the adjuvant (rat adjuvant arthritis; orally): very slight |
| N-(4-Ethoxycarbonylmethylphenyl)-L-glutamine [Compound (1)] | 91.7% | 76.4% | 85.2% | 78.2% | 85.7% | 74.5% | No. of dead mice/No. of test animals (ddY mice; [4]): 0/5; No. of dead mice/No. of test animals (ddY mice; [5]): 0/5 |
| N-(4-ethoxycarbonylmethylphenyl)-L-glutamine hydrochloride [Compound (11)] | 84.1% | 80.8% | 77.7% | 67.3% | 89.8% | 83.7% | – |
| N-(4-n-Butyloxycarbonylmethylphenyl)-L-glutamine [Compound (5)] | 72.2% | 84.7% | 91.6% | 95.7% | 94.5% | 82.2% | – |
| N-(4-n-Propyloxycarbonylmethylphenyl)-L-glutamine [Compound (4)] | 91.7% | 91.9% | 70.4% | 80.2% | 91.7% | 79.6% | – |
| N-[4-(2-Ethoxycarbonylethyl)phenyl]-L-glutamine [Compound (8)] | 81.0% | 80.6% | 76.2% | 76.7% | 85.0% | 92.3% | – |
| N-[4-(2-Ethoxycarbonylvinyl)phenyl]-L-glutamine [Compound (10)] | 85.8% | 109.9% | 100% | 101% | 81.3% | 82.6% | – |
| N-[4-(3-Ethoxycarbonyl-n-propyl)phenyl]-L-glutamine [Compound (9)] | 100.6% | 96.7% | 91.3% | 80.2% | 85.3% | 88.9% | – |
